Structures can show the parent of a compound that is named as a salt.
Tests used:
TetR-HP1 = assay: Orthogonal TetR-HP1 recruitment assay (BFP reporter); type: cell-based, mouse; details: 5 μM, 48 hrs, with TetR-HP1 recruitment
Text: The CiA:Oct4 recruitment system in mouse embryonic stem cells contains Gal4 and Zinc finger DNA binding arrays and a downstream nuclear eGFP gene in place of a single Oct4 allele as previously described (Hathaway et al., 2012). The CiA:Oct4 N118/N163 cell line containing viral integrations of N118 and N163 plasmids (N118-nLV EF-1α-Gal-FKBPx1-HA-PGK-Blast, N163-nLV EF-1α-HP1α (CS)-Frbx2(Frb+FrbWobb)-V5-PGK-Puro) was used for all experiments unless otherwise stated. The CiA:Oct4 N205 line containing the lentiviral construct N205 (N205-nLV EF-1α-ZFHD1-link-FKBP-HA <T2A> HP1αCS-Frbx2-V5-PGK-Blast) was used for shRNA experiments. CiA:Oct4 N118 was infected with the lentiviral construct N192 (N192-nLV Dual Promoter EF-1α-MCS-PGK-Puro HP1γ-(CS)-Frbx2(wobbmo)-V5) to yield the csHP1γ recruitment system CiA:Oct4 N118/N192. […]
TetR-HP1 cell lines were continuously grown with 1 μg/ml doxycycline to maintain an open chromatin state. […] Median BFP intensity was determined by FlowJo software analysis. […]

G9a = biological target: T1, G9a (Homo sapiens, UniProt Q96KQ7); assay: In vitro activity against G9a; type: biochemical; details: data not shown
T1 sequence (Q96KQ7 1-1210): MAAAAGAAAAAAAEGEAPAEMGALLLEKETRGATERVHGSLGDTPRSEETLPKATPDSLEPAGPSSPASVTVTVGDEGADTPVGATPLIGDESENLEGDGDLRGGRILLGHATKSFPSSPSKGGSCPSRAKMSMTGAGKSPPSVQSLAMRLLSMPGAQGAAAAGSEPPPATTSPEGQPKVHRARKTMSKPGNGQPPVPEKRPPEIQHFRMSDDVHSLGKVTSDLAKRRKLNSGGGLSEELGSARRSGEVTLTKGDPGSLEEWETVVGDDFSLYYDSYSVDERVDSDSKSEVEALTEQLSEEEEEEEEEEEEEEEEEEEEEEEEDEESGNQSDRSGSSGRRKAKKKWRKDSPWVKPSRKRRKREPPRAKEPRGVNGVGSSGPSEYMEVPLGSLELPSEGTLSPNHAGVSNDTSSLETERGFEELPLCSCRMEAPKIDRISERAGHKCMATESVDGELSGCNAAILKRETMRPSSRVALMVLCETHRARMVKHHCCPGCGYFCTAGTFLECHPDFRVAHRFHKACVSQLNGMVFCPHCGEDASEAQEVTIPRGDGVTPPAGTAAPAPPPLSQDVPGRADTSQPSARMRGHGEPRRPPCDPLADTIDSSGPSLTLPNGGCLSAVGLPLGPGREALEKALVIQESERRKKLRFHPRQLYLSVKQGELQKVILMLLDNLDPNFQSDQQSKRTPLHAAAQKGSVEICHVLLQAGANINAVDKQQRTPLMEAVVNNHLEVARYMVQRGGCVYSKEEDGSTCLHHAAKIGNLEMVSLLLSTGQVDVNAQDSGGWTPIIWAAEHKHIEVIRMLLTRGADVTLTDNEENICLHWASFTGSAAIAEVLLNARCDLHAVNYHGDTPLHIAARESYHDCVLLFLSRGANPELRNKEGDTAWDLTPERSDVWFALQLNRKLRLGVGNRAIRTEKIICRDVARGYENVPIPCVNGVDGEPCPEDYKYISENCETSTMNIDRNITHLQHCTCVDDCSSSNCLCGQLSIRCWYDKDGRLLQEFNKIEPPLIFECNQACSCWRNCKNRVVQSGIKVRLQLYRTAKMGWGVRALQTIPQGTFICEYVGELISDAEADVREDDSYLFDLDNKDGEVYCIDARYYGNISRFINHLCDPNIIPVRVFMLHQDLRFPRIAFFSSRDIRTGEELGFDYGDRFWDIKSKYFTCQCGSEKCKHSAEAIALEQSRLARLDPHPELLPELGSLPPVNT

csHP1γ = csHP1γ inhibition assay, CiA:Oct4 N118/N192 cells; type: cell-based, mouse; details: 5 μM, 48 hrs, + 6 nM rapamycin
Procedure: Day 0, CiA:Oct4 N118/N192 cells were grown and cultured in 96 well plate format with 10,000 cells seeded per well. Day 1, media was aspirated and replaced with fresh ES media containing 5 μM of top screen compounds and +/−6 nM rapamycin. Day 2, media was aspirated and replaced with fresh ES media containing 5 μM of top screen compounds and +/−6 nM rapamycin. Day 3, wells were aspirated and washed with PBS prior to sample preparation and analysis by flow cytometry.
After 48-hrs of 5 μM compound treatment with and without rapamycin, the % GFP (+) populations were determined by flow cytometry analysis.
Flow cytometry analysis was used to determine the % GFP (+) population. Data was converted to % inhibition for the +rapamycin samples. Experiments were performed in biological triplicate. (n≥3) (p≤0.05*, 0.01**).

## COc1cc2nc(N3CCCC3)nc(N[C@H]3CCCNC3)c2cc1OC [compound 1, (S)-6,7-Dimethoxy-N-(Piperidin-3-yl)-2-(Pyrrolidin-1-yl)Quinazolin-4-Amine Trifluoroacetic Acid Salt]
TetR-HP1
  Inhibition of HP1-mediated heterochromatin formation (median BFP expression): significantly inhibit
G9a
  Activity against G9a in vitro: no detectable activity
csHP1γ
  Inhibition of csHP1γ-mediated repression of CiA:Oct4 locus: most potent inhibitors of csHP1γ
